Usually IC50 stands for the concentration at which inhibition is half-maximal.

Consider 5 molecules from PMC9030166, “Natural Phaeosphaeride A Derivatives Overcome Drug Resistance of Tumor Cells and Modulate Signaling Pathways” (Pharmaceuticals, 2022).

Test [1] relates to HEK293. In words: MTT cytotoxicity, human embryonic kidney cells HEK293. The settings on record: 48 h. It counts as cell-based. The source says: (§1) Cell cultures used in the work: adhesive cultures HBL-100 cells (cells of a normal mammary gland epithelium, immortalized by the SV40 virus and acquired tumorigenicity); MCF-7 breast cancer cells; PC-3 prostate adenocarcinoma cells; HCT-116 colorectal cancer cells; non-small cell lung cancer cells A549; human embryonic kidney cells HEK293; suspension cultures (NCI-H929 and RPMI8226 multiple myeloma cells), K562 chronic myeloid leukemia cells; THP-1 acute monocytic leukemia cells; and Jurkat acute T-cell leukemia cells. We also used several primary cultures of soft tissue sarcomas at 3–4passeges, kindly provided by T.I. Fetisov (The Ethics Committee of N.N. Blokhin NMRCO, protocol code 18-28-09095 and date of approval 28 September 2018).
(§2) Cells MCF-7, PC-3, A549, and HCT-116, and primary cultures of STSwere seeded in 96-well plates, 6 × 10^3 cells per well in 90 μL of culture medium. Suspension cultures were seeded at a concentration of 25 × 10^3 cells per well in 135 μL of medium. The test substances were dissolved in DMSO (Applichem, Council Bluffs, IA, USA) until a concentration of 1 × 10^−^2 M was obtained; for the subsequent dilution of the substances, a serum-free culture medium was used. The next day, for adhesive cultures, and on the same day, for suspension cultures, substances were added to the plates in a volume of 10 μL (adhesive cultures) and 15 μL (suspension cultures) per well at various concentrations; each concentration was added in 3–4 repetitions. The cells were cultured in the presence of substances for 48 h. Then, MTT reagent (PanEko, Moscow, Russia) was added to the wells at a concentration of 5 mg/mL in a volume of 20 μL per well. After 1.5–2 h, the medium with the reagent was removed, and the precipitate of the crystals of formazan was dissolved in 60 μL of DMSO. The optical density was determined using a Multiskan FC spectrophotometer (Thermo Scientific, Waltham, MA, USA) at a wavelength of 540 nm.
(§3) Based on the results of the experiments, a schedule was plotted of the dependence of the percentage of surviving cells (from control) on the concentration of the compound, and the sought concentration IC50 was calculated. The experiments were carried out in 3–4 times.

The test system of test [2] is HBL-100/Dox. In words: MTT cytotoxicity, resistant HBL-100/Dox cells. It counts as cell-based, human. The settings on record: for IC50: Homo sapiens, HBL-100, resistant version, MTT, 48 h; for resistance of HBL-100/Dox cells relative to HBL-100: ratio of IC50 values, Table 5.
Source text: At the next stage, the cytotoxic activity of compounds 1, 2, and 9 (Scheme 2) was investigated on several pairs of cell lines that differ in the expression of P-gp and the method by which they were obtained. […] K562/i-S9_Dox cells were obtained from K562/i-S9 by selection with low concentrations of doxorubicin to increase P-gp expression.
(§4) Modifications of cell lines: K562/i-S9 is a clone obtained after transfection of K562 cells with the ABCB1 (MDR1) gene-encoding P-glycoprotein [36]. Cells HBL-100/Dox and K562/i-S9_Dox are cells obtained by long-term selection with increasing concentrations of doxorubicin (Sigma-Aldrich, St. Louis, MO, USA) from HBL-100 and K562/i-S9 cells, respectively. MCF-7, A594 cells, and primary cultures of soft tissue sarcomas were cultured in DMEM medium (PanEko, Russia), PC-3 and HCT-116 cells and all suspension cultures in RPMI1640 medium (PanEko, Russia) supplemented with 10% fetal bovine serum (GE Healthcare LifeSciences, USA), and gentamicin at a concentration of 40 μg/mL at 37 °C and 5% CO2.
as §2
The experiments were carried out in 3–4 times.

For test [3], the system named is MCF-7. In words: MTT cytotoxicity, MCF-7 breast cancer cells. The settings on record: Homo sapiens, MCF7, adhesive tumor culture, 48 h. It counts as cell-based.
Source text: as §1, §4, §2, §3

For test [4], the system named is ERK 1/2 (pThr185/pTyr187). In words: MILLIPLEX MAP 9-Plex, ERK 1/2 active form in A431 lysates. It counts as cell-based, human. The settings on record: 10 μM; for ERK ½ (pThr185/pTyr187) fluorescence intensity: A431 cell lysates, 1 h, M ± mx, control 839.7 ± 248.9; for activation of signaling pathway ERK/MAP kinase 1/2 (pThr185/pTyr187), in words: A431 cells. The source says:
(§5) We used the MILLIPLEX MAP Multi-Pathway Magnetic Bead 9-Plex-Cell Signaling Multiplex Assay, which allows the simultaneous detection of nine phosphorylated proteins that are markers of the main intracellular signaling pathways (phosphorylation site is indicated in parentheses), a universal transcription factor that controls the expression of immune response genes; apoptosis and cell cycle NFκB (pS536); cAMP-dependent transcription factor (CREB (pS133); mitogen-activated kinase p38 (pT180/pY182); stress-activated protein kinase JNK (pT183/pY185); ribosomal […]; transcription factors STAT3 (pS727) and STAT5A/B (pY694/699); protein kinase B (Akt) (pS473); and kinase regulated by extracellular signals ERK1/2 (pT185/pY187).
(§6) The effect of various concentrations of PPA derivatives on the cell culture was studied using xCelligence RTCA equipment (AceaBioscience, San Diego, CA, USA). The concentration closest to the IC50 (10 μM) was chosen as the experimental concentration. The selected concentration of phaeosphaeride A derivatives allows for the assessment of the early effect of compounds on cells and compares their effectiveness. In this experiment, the signaling pathways Akt (pSer473), p70S6K (pThr412), NFkB (p65-pSer536), and CREB (pSer133) were not activated (Table 8). The stress-activated signaling pathways ERK/MAP kinase 1/2 (pThr185/pTyr187), JNK (pThr183/pTyr185), and p38 (pThr180/pTyr182) were activated for these compounds.
(§7) We used a MILLIPLEX MAP Multi-Pathway Magnetic Bead 9-Plex-Cell Signaling Multiplex Assay kit (Merck/Millipore), according to the manufacturer’s protocol. A431 cells were cultured in DMEM with 10% FBS in 24-well plates. Compounds were added to the subconfluent cells at a concentration of 10 μM in DMEM medium for 1 h. Each compound was added in 5 experimental repeats. Cell lysates were prepared with lysis buffer (Millipore) with protease inhibitors (Complete, Roche); the protein concentration in the lysates was determined by the Lowry method. In samples equalized in protein concentration, the active forms of kinase cascades were determined using a Bio-Plex 200 fluorescent analyzer (Bio-Rad).

Test [5] relates to STAT3 (pSer727). In words: MILLIPLEX MAP 9-Plex, STAT3 active form in A431 lysates. It counts as cell-based, human. The settings on record: 10 μM; for STAT3 (pSer727) fluorescence intensity: A431 cell lysates, 1 h, M ± mx, control 70.7 ± 18.3.
Source text: as §5, §6, §7

Test [6] deals with RPMI8226. Description: MTT cytotoxicity, RPMI8226 multiple myeloma cells. The settings on record: Homo sapiens, RPMI-8226, suspension culture, 48 h. It counts as cell-based.
Source text: as §1, §4, §2, §3

Test [7] deals with JNK (pThr183/pTyr185). In words: MILLIPLEX MAP 9-Plex, JNK active form in A431 lysates. The settings on record: 10 μM; for JNK (pThr183/pTyr185) fluorescence intensity: A431 cell lysates, 1 h, M ± mx, control 50.9 ± 10.5; for activation of signaling pathway JNK (pThr183/pTyr185), in words: A431 cells. Type of test: cell-based, human.
Source text: as §5, §6, §7

Test [8] concerns CMT № 2 (Malignant Schwannoma). In words: MTT cytotoxicity, primary culture of soft tissue sarcoma CMT № 2. Type of test: cell-based. The settings on record: Homo sapiens, 48 h.
Source text: It is believed that such cultures have a molecular profile that corresponds more with cells from the human body, in comparison with that of stable cultures of tumor cells (Table 3).
as §1, §4
as §2, with “Then, MTT reagent (PanEko, Moscow, Russia) was added to the wells at a concentration of 5 mg/mL in a volume of 20 μL per well. After 1.5–2 h, the medium with the reagent was removed, and the precipitate of the crystals of formazan was dissolved in 60 μL of DMSO.” left out
Based on the results of the experiments, a schedule was plotted of the dependence of the percentage of surviving cells (from control) on the concentration of the compound, and the sought concentration IC50 was calculated. […]

The structures appear in SMILES notation.

`C=C1C2=C(C(=O)N1OC)[C@@H](N1CCCC1)[C@@](C)(O)[C@H](CCCCC)O2` [Compound 1]: the IC50 was 5.1 ± 0.7 µM in test [1]; 7.6 ± 0.6 µM in test [2]; 3.9 ± 0.8 µM in test [3]; 1.6 ± 0.3 µM in test [6]; 2.5 ± 0.9 µM in test [8]. Further, the “resistance of HBL-100/Dox cells relative to HBL-100” value in test [2] is listed as “no difference in resistance”. Besides, the “ERK ½ (pThr185/pTyr187) fluorescence intensity” value in test [4] is 4650.1 ± 509.0 *↑ rel. units. Moreover, the “STAT3 (pSer727) fluorescence intensity” value in test [5] is 163.0 ± 20.7 *↑ rel. units. Moreover, in test [7], the “JNK (pThr183/pTyr185) fluorescence intensity” value is listed as 239.9 ± 23.9 *↑ rel. units.

As for `C=C1C2=C(C(=O)N1OC)[C@@H](N(C)C)[C@@](C)(O)[C@H](CCCCC)O2` [Compound 2, (2S,3R,4R)-4-(dimethylamino)-3-hydroxy-6-methoxy-3-methyl-7-methylene-2-pentyl-3,4,6,7-tetrahydropyrano[2,3-c]pyrrol-5(2H)-one], the half-inhibitory concentration (IC50) is 4.2 ± 0.3 µM in test [1]; 6.6 ± 1.2 µM in test [2]; 3 ± 0.8 µM in test [3]; 1.6 ± 0.5 µM in test [6]; 1.9 ± 0.5 µM in test [8]. In addition, the “resistance of HBL-100/Dox cells relative to HBL-100” value in test [2] is given as “no difference in resistance”. Also, the “ERK ½ (pThr185/pTyr187) fluorescence intensity” value in test [4] is reported as 5074.6 ± 770.1 *↑ rel. units. Moreover, in test [4], the “activation of signaling pathway ERK/MAP kinase 1/2 (pThr185/pTyr187), in words” value (“activation … (pThr185/pTyr187), in words” for short) is given as “maximum degree of activation”. In addition, the “STAT3 (pSer727) fluorescence intensity” value in test [5] was 272.3 ± 50.5 *↑ rel. units. The “activation of transcription factor STAT3 (pSer727), in words” value in test [5] (A431 cells) is on record as “slightly activated”. Moreover, the “JNK (pThr183/pTyr185) fluorescence intensity” value in test [7] was 559.2 ± 31.5 *↑ rel. units. In addition, the “activation of signaling pathway JNK (pThr183/pTyr185), in words” value (“activation … (pThr183/pTyr185), in words” for short) in test [7] is given as “maximum degree of activation”.

The molecule `C=C1C2=C(C(=O)N1OC)[C@@H](N(CCCC)CCCC)[C@@](C)(O)[C@H](CCCCC)O2` [Compound 5, (2S,3R,4R)-4-(dibutylamino)-3-hydroxy-6-methoxy-3-methyl-7-methylene-2-pentyl-3,4,6,7-tetrahydropyrano[2,3-c]pyrrol-5(2H)-one] gave an IC50 in test [1] of 8.2 ± 0.9 µM. In test [3], the IC50 was 7.4 ± 0.5 µM. Besides, in test [4], the “ERK ½ (pThr185/pTyr187) fluorescence intensity” value is recorded as 1880.4 ± 81.7 *↑ rel. units and the “activation … (pThr185/pTyr187), in words” value is reported as “only slightly activated”. Moreover, in test [5], the “STAT3 (pSer727) fluorescence intensity” value is recorded as 123.4 ± 8.3 *↑ rel. units. Moreover, in test [6], the IC50 is 6.3 ± 0.3 µM. Moreover, in test [7], the “JNK (pThr183/pTyr185) fluorescence intensity” value is 83.1 ± 8.3 *↑ rel. units and the “activation … (pThr183/pTyr185), in words” value is “only slightly activated”.

On to `C=C1C2=C(C(=O)N1OC)[C@@H](N(CC)CCO)[C@@](C)(O)[C@H](CCCCC)O2` [Compound 9, (2S,3R,4R)-4-[ethyl(2-hydroxyethyl)amino]-3-hydroxy-6-methoxy-3-methyl-7-methylene-2-pentyl-3,4,6,7-tetrahydropyrano[2,3-c]pyrrol-5(2H)-one], for which the IC50 was found to be 3.8 ± 0.4 µM in test [1]; 8.4 ± 0.4 µM in test [2]; 2.9 ± 1 µM in test [3]; 1.8 ± 0.2 µM in test [6]; 4.1 ± 1.1 µM in test [8]. The “resistance of HBL-100/Dox cells relative to HBL-100” value in test [2] is listed as “tendency towards a slightly higher resistance”. The “ERK ½ (pThr185/pTyr187) fluorescence intensity” value in test [4] is reported as 3276.9 ± 700.0 *↑ rel. units. Moreover, in test [5], the “STAT3 (pSer727) fluorescence intensity” value worked out at 151.5 ± 28.7 rel. units. In addition, in test [7], the “JNK (pThr183/pTyr185) fluorescence intensity” value is on record as 117.9 ± 15.1 *↑ rel. units.

In test [1], `CCCCC[C@@H]1OC2=C(C(=O)N(OC)/C2=C\n2cnnc2)C(n2cnnc2)[C@@]1(C)O` (stereo partly shown) [Compound 10] gave an IC50 of 41 ± 2.1 µM. Further, the IC50 in test [3] worked out at 49 ± 5.3 µM. In addition, in test [4], the “ERK ½ (pThr185/pTyr187) fluorescence intensity” value was 1864.9 ± 149.5 *↑ rel. units and the “activation … (pThr185/pTyr187), in words” value is listed as “only slightly activated”. Moreover, the “STAT3 (pSer727) fluorescence intensity” value in test [5] is listed as 178.9 ± 13.4 *↑ rel. units. The molecule further yielded an IC50 in test [6] of 51 ± 0.2 µM. For the same molecule, in test [7], the “JNK (pThr183/pTyr185) fluorescence intensity” value is 157.2 ± 15.4 *↑ rel. units and the “activation … (pThr183/pTyr185), in words” value is on record as “only slightly activated”.
